Where “and” joins values, the source holds several entries; their conditions need not be identical. Equal values may be shown once.

Data set [1] deals with C450-8 (C6-derived clone, cytochrome P450 2B1). Put plainly: Growth in the presence of 500 μM cyclophosphamide. The following applies: 500 μM CPA, four days.
The subject of data set [2] is C6-P450 cells. Put plainly: Trypsinization and replating assay. The note with it: for Cell number: replated, counted nine days later. Type of data set: cell-based, rat. The protocol:
(§1) Trypsinization and replating assay: To determine the temporal kinetics of CPA-mediated cytotoxicity, 2×10^6 cells were plated onto each 10 cm dish. Twenty-four hours later, 0.5 mM CPA was added and cells were incubated for the times indicated in each figure. Cells were then trypsinized and replated at a density of 2×10^5 cells/10 cm dish. Nine days later, cell numbers were evaluated by Coulter counting.

Data set [3] deals with C6 cells. Put plainly: Trypsinization and replating assay. Type of data set: cell-based, rat. The note with it: for Cell number: replated, counted nine days later. The protocol: as §1
Data set [4] has as its system control tumor MCF-7 Z3. Put plainly: MCF-7 tumors in nude mouse model. The note with it: 100 mg/kg ×2 intraperitoneal, day 0 and day 2. Type of data set: in vivo, nude mice. The protocol: (§2) MCF-7 cells or stable MCF-7 cell transfectants expressing cytochrome P450 2B1 or E. coli β-galactosidase (lacZ) were grown in cell culture. Cells in the exponential growth phase were harvested and then injected subcutaneously (1×10^7 cells in 0.2 mL) in the flanks of nude mice. A single 17β-estradiol pellet (1.7 mg hormone/60-day release pellet, Innovative Research, Toledo, Ohio) was implanted one day before tumor inoculation. At one month after tumor inoculation, the size of each tumor was measured using a vernier caliper.
(§3) Nude mice were then treated with cyclophosphamide given at 100 mg/kg body weight×2, by intraperitoneal injection given on day 0 and again on day 2. Tumor size measurements were then again determined using a vernier caliper, and data are expressed relative to tumor sizes as of day 0, the day of initial cyclophosphamide (CPA) injection.

Data set [5] concerns cytochrome P450 2B1-expressing MCF-7 cells. Put plainly: MCF-7 tumors in nude mouse model. The data set is classed as in vivo, nude mice. The following applies: 100 mg/kg ×2 intraperitoneal, day 0 and day 2. The protocol: as §2, §3
The subject of data set [6] is C6 glioma plus R450-2 cells. Put plainly: Brain tumor model, fibroblast graft then intrathecal/intratumoral CPA. The data set is classed as in vivo, athymic mice. The protocol: (§4) For intracerebral injections, mice were anesthetized with an intraperitoneal injection of Ketamin (100 mg per kg body weight) (Parke Davis, NJ) and Xylazine (20 mg per kg body weight) (Mobay Corp., KS). Surgical procedures were performed in a sterile fashion. After immobilizing the rodent in stereotactic apparatus (Kopf), a small incision was made in the skin overlying the skull. C6 glioma cells (10^3 cells in 2 μl) were stereotactically inoculated approximately 0.5 mm frontal and 0.5 mm right lateral to the bregma using a Hamilton syringe. The inoculation period was 5 minutes, with 2 minutes allowed for needle retraction. Three days later, the same burrhole was employed for the stereotactic grafting of 5×10^6 CRELacZ cells (cell line kindly provided by Dr. R. Mulligan, MIT) or 5×10^6 R450-2 cells in 25 μl of DMEM. Four, eight, and eleven days after this last injection, CPA (0.3 mg in 5 μl) was administered stereotactically, through the same skull opening, into the tumor and meningeal space of mice from both CRELacZ and R450-2 groups. Injections were carried out stereotactically over a period of ten minutes, with five minutes allowed for needle retraction. Animals were sacrificed, ten days after injection of the last dose of prodrug, by perfusing through the left ventricle approximately 3-5 mL of 100 mM sodium phosphate in 0.9% sodium chloride, pH 7.3, followed by 4% paraformaldehyde in 100 mM sodium phosphate, pH 7.3. Brains were carefully dissected from the skull and jaws of the animals, prior to placement overnight in 4% paraformaldehyde in 100 mM sodium phosphate, pH 7.3. For cryopreservation, brains were placed in 20% glycerol/10% dimethylsulfoxide in 100 mM sodium phosphate, pH 7.3, and then cut in 50 micron sections with a sledge microtome. Every sixth section was mounted onto gelatin-coated slides and stained with cresyl violet. To calculate brain tumor volumes, a computerized-image analyzer was used to scan tumor areas on each section. This analysis was performed in a blind fashion. Manual contouring was performed to distinguish tumor from normal brain cysts, or processing artifacts. Tumor volumes were obtained by multiplying the average tumor area from all sections in a brain by the distance (0.3 mm) between and including each section.

Data set [7] deals with C6 glioma plus CRELacZ cells. The description is as above. Type of data set: in vivo, athymic mice. The protocol: as §4
Data set [8] has as its system C6VIKWT tumors. Put plainly: Ganciclovir sensitivity of subcutaneous tumors in vivo. The arrangement: species or system nude mice. The protocol: Ganciclovir therapy was begun when tumor size reached 1 cm in diameter as measured by calipers, by intraperitoneal injections up to 25 mg/kg daily for 14 days. […] Tumor volumes were measured biweekly during treatment over a 24 day period, and were expressed as a percentage compared to the volume at the time treatment was begun.

Setting [9] is: Table V panel B, survivors of panel A replated, nine days.
Setting [10] is: CPA 0.3 mg on days 4, 8, 11 after graft, sacrifice ten days after last dose.
Where [11] appears, read: individual animals, after cyclophosphamide administration.

Turning to `O=P1(N(CCCl)CCCl)NCCCO1` (stereo not shown) [cyclophosphamide], the Cell destruction entry in data set [1] is “destroyed completely”. In addition, the “pulse of CPA sufficient to completely inhibit the growth of replated cells” value in data set [2] (0.5 mM CPA) came to 3 h. The Cell number in data set [2] (0.5 mM CPA for 0.5 h) was 12 ± 1 ×10^6; in data set [2] (0.5 mM CPA for 1.5 h), 24.1 ± 0.6 ×10^6; in data set [2] (0.5 mM CPA for 3 h), 0.2 ×10^6; in data set [2] (0.5 mM CPA for 6 h), 0.1 ×10^6; in data set [2] (0.5 mM CPA for 10 h) it was 0.1 ×10^6; in data set [2] (0.5 mM CPA for 24 h), 0.1 ×10^6. Besides, the Cell number in data set [2] (0.5 mM CPA for 32 h) is recorded as 0 ×10^6; in data set [2] (0.5 mM CPA for 48 h), 0.1 ×10^6; in data set [2] (0.5 mM CPA for 72 h), 0 ×10^6; in data set [2] (0.5 mM CPA for 96 h), 0 ×10^6; in data set [3] (0.5 mM CPA for 0.5 h), 11.6 ± 0.4 ×10^6; in data set [3] (0.5 mM CPA for 1.5 h), 21.7 ± 0.6 ×10^6. In addition, the Cell number in data set [3] (0.5 mM CPA for 3 h) was 13.1 ± 1.6 ×10^6; in data set [3] (0.5 mM CPA for 6 h), 12.9 ± 0.7 ×10^6; in data set [3] (0.5 mM CPA for 10 h) it was 20.4 ± 0.6 ×10^6; in data set [3] (0.5 mM CPA for 24 h), 17 ± 0.7 ×10^6; in data set [3] (0.5 mM CPA for 32 h), 15.4 ± 0.5 ×10^6; in data set [3] (0.5 mM CPA for 48 h) it was 18.3 ± 1 ×10^6. The Cell number was 20.2 ×10^6 in data set [3] (0.5 mM CPA for 72 h) and 28.8 ± 0.8 ×10^6 in data set [3] (0.5 mM CPA for 96 h). In addition, the “Proliferation of treated cells after replating” value in data set [2] (0.5 mM, trypsinization and replating) is given as “completely inhibited”. Also, the “Trypsinization and replating assay, cell count” value is 0.11±0.01 in data set [2] (setting [9]) and 21.48±0.38 in data set [3] (setting [9]). Also, the “Tumor cyclophosphamide sensitivity in vivo” value in data set [4] is reported as “only a moderate cyclophosphamide sensitivity”. The “Tumor cell kill in vivo” value in data set [5] is given as “preferentially killed”. Further, the “animals with a small residual meningeal mass” value in data set [6] (CPA 0.3 mg on days 4, 8, 11 after graft) is reported as 1/8. In data set [6] (setting [10]), the “animals with no evidence of meningeal tumor” value is reported as 7/8. Also, the “brains with extensive tumor necrosis” value in data set [6] (histopathology of six brains) is 3/6. Besides, the “Volumes of parenchymal brain tumors” value in data set [6] (setting [11]) is 3.2 mm^3 and 14.2 mm^3 and 28.4 mm^3 and 87.4 mm^3 and 105.3 mm^3 and 171.4 mm^3; in data set [7] (setting [11]), 47.5 mm^3 and 51.5 mm^3 and 54.7 mm^3 and 62.4 mm^3 and 72.6 mm^3 and 85.1 mm^3. Moreover, the “brain tumor volume as fraction of average volume in lacZ-producer controls” value in data set [6] (three of six animals, listed as CPA) was “approximately 1/20 and 1/5 and 1/2”. In addition, the “animals with extensive and friable meningeal tumor” value in data set [7] (setting [10]) is listed as 8/8. Also, the “Tumor necrosis of parenchymal tumors” value in data set [7] (histopathology of six brains) is on record as “essentially no tumor necrosis”.

As to `Nc1nc(O)c2ncn(COC(CO)CO)c2n1` [ganciclovir], the Tumor growth entry in data set [8] (ganciclovir for 14 days from tumor size 1 cm) was “inhibited subsequent growth completely”. In addition, the Tumor regression entry in data set [8] (subcutaneous inoculation, GCV treatment) is given as “regression of tumors in most nude mice”.

These data come from patent US5688773A, “Method of selectively destroying neoplastic cells” (priority 1994, dated 1997).
